The values below come from US10500222B2, “Compositions and methods relating to treatment of infection” (Wayne State University, priority 2015, dated 2019).

In assay [1] the test system is neutrophils in the cornea, P. aeruginosa KEI 1025. The experiment in a line: Myeloperoxidase (MPO) assay, KEI 1025 infection. Conditions: pretreatment subconj. + IP, vs PBS. In kind it is in vivo, C57BL/6 (B6) mice. The procedure:
(§1) The left eyes of B6 mice (n=5/group/time) were injected with 5 μl of 2 μg/μl glycyrrhizin (GLY) (Sigma-Aldrich, St. Louis, Mo.) or PBS (control) subconjunctivally, one day before infection. Similar treatment was done using carbenoxolone (CBX) (Sigma-Aldrich, St. Louis, Mo.). All mice were injected intraperitoneally (IP) at 1 and 3 days p.i. with 100 μl of GLY (2 μg/μl) or CBX (1 μg/μl). PBS served as control for all these experiments. In a separate similar experiment mice were treated one day before infection with GLY subconjunctivally and injected intraperitoneally (i.p.) with GLY plus recombinant (r) HMGB1 (1 μg/100 μl) or GLY plus PBS. IP injections were similarly given at 1 and 3 days p.i. In an additional experiment, KEI 1025 infected B6 mice were treated with 5 μl of 2 μg/μl GLY subconjunctivally at 6 hours p.i. and injected intraperitoneally at 1 and 3 days p.i. with 100 μl of GLY (2 μg/μl).
(§2) This assay was used to quantitate neutrophils in the cornea of GLY and PBS treated mice (n=5/group/time) infected with KEI 1025 or ATCC strain 19660. Individual corneas were removed at 3 and 5 days p.i. and homogenized in 1.0 ml of 50 mM phosphate buffer (pH 6.0) containing 0.5% HTAB. […] The change in absorbency was monitored at 460 nm for 5 min at 30 sec intervals. The slope of the line was determined for each sample and used to calculate units of MPO/cornea. […]

Assay [2] has as its system neutrophils in the cornea, P. aeruginosa ATCC strain 19660. In words: Myeloperoxidase (MPO) assay, strain 19660 infection. Particulars: vs PBS. It counts as in vivo, C57BL/6 (B6) mice. The procedure:
as §1, §2

The structures appear in SMILES notation.

Take `CC1(C)[C@@H](O[C@H]2O[C@H](C(=O)O)[C@@H](O)[C@H](O)[C@H]2O[C@@H]2O[C@H](C(=O)O)[C@@H](O)[C@H](O)[C@H]2O)CC[C@]2(C)[C@H]3C(=O)C=C4[C@@H]5C[C@@](C)(C(=O)O)CC[C@]5(C)CC[C@@]4(C)[C@]3(C)CC[C@@H]12` [GLY, glycyrrhizin]: the “neutrophils in cornea (MPO assay)” value in assay [1] (3 days p.i.) and in assay [1] (5 days p.i.) was “decreased neutrophils” in each case. The “neutrophils in the cornea (MPO assay)” value in assay [2] (3 days p.i.) and in assay [2] (5 days p.i.) was “significant decrease in neutrophils” in each case.
